Measured values from PubChem BioAssay AID1963854 (Molecular Pharmacology Branch, DTP, NCI, 2024).

System: 186277-243-T-J2-PDC complex spheroid viability
Experiment: Anticancer human tumor 186277-243-T-J2-PDC patient-derived colon adenocarcinoma cell line growth inhibition [POLQ]
Details: for IC50: curve of first compound; for viability, T/C: stronger effect = lower value
Summary of the method: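 Patient-derived tumour cells were co-cultured with HUVEC and mesenchymal stem cells as multicellular spheroids at 37 °C. They were treated with POLQ inhibitors (novobiocin, ART-558, RP6685) alone or combined with other agents. Top concentrations were at or near clinical Cmax (otherwise 10 microM; SN-38 at 1 microM), decreasing in half-log steps.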

[1] = second compound 0.0316 µM, first compound 0.0316 µM
[2] = second compound 0.0316 µM, first compound 0.1 µM
[3] = second compound 0.0316 µM, first compound 0.316 µM
[4] = second compound 0.0316 µM, first compound 1 µM
[5] = second compound 0.0316 µM, first compound 3.16 µM
[6] = second compound 0.0316 µM, first compound 10 µM
[7] = second compound 0.1 µM, first compound 0.0316 µM
[8] = second compound 0.1 µM, first compound 0.1 µM
[9] = second compound 0.1 µM, first compound 0.316 µM
[10] = second compound 0.1 µM, first compound 1 µM
[11] = second compound 0.1 µM, first compound 3.16 µM
[12] = second compound 0.1 µM, first compound 10 µM
[13] = second compound 0.316 µM, first compound 0.0316 µM
[14] = second compound 0.316 µM, first compound 0.1 µM
[15] = second compound 0.316 µM, first compound 0.316 µM
[16] = second compound 0.316 µM, first compound 1 µM
[17] = second compound 0.316 µM, first compound 3.16 µM
[18] = second compound 0.316 µM, first compound 10 µM
[19] = second compound 1 µM, first compound 0.0316 µM
[20] = second compound 1 µM, first compound 0.1 µM
[21] = second compound 1 µM, first compound 0.316 µM
[22] = second compound 1 µM, first compound 1 µM
[23] = second compound 1 µM, first compound 3.16 µM
[24] = second compound 1 µM, first compound 10 µM
[25] = second compound 3.16 µM, first compound 0.0316 µM
[26] = second compound 3.16 µM, first compound 0.1 µM
[27] = second compound 3.16 µM, first compound 0.316 µM
[28] = second compound 3.16 µM, first compound 1 µM
[29] = second compound 3.16 µM, first compound 3.16 µM
[30] = second compound 3.16 µM, first compound 10 µM
[31] = second compound 10 µM, first compound 0.0316 µM
[32] = second compound 10 µM, first compound 0.1 µM
[33] = second compound 10 µM, first compound 0.316 µM
[34] = second compound 10 µM, first compound 1 µM
[35] = second compound 10 µM, first compound 3.16 µM
[36] = second compound 10 µM, first compound 10 µM
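Further: spheroids exposed to compounds for seven days.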
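Wherever viability, T/C is given: 100% = DMSO vehicle control viability.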

CCc1cc2c(N3CCc4c(cc(Cn5ccnc5)cc4-c4cn(C)nc4C(F)(F)F)C3=O)cc(C)nc2c(OC)n1 + Nc1ccc(C#CCN(C(=O)Cc2ncc(C(F)(F)F)cc2C(F)(F)F)c2ccc(F)cc2)nn1
IC50 (second compound 0.0316 µM): > 10 µM | IC50 (second compound 0.1 µM): > 10 µM | IC50 (second compound 0.316 µM): > 10 µM | IC50 (second compound 1 µM): > 10 µM | IC50 (second compound 3.16 µM): > 10 µM | IC50 (second compound 10 µM): > 10 µM | viability, T/C [1]: 97% | viability, T/C [2]: 104% | viability, T/C [3]: 96% | viability, T/C [4]: 117% | viability, T/C [5]: 119% | viability, T/C [6]: 95.8% | viability, T/C [7]: 95.3% | viability, T/C [8]: 89.4% | viability, T/C [9]: 96.9% | viability, T/C [10]: 108% | viability, T/C [11]: 124% | viability, T/C [12]: 97.2% | viability, T/C [13]: 107% | viability, T/C [14]: 89.2% | viability, T/C [15]: 96.6% | viability, T/C [16]: 101% | viability, T/C [17]: 89.7% | viability, T/C [18]: 86% | viability, T/C [19]: 95.1% | viability, T/C [20]: 106% | viability, T/C [21]: 101% | viability, T/C [22]: 98.7% | viability, T/C [23]: 114% | viability, T/C [24]: 90.6% | viability, T/C [25]: 104% | viability, T/C [26]: 88.4% | viability, T/C [27]: 91.8% | viability, T/C [28]: 87.6% | viability, T/C [29]: 109% | viability, T/C [30]: 87.3% | viability, T/C [31]: 102% | viability, T/C [32]: 95.5% | viability, T/C [33]: 94.1% | viability, T/C [34]: 106% | viability, T/C [35]: 95.6% | viability, T/C [36]: 76.2%

CCc1cc2c(N3CCc4c(cc(Cn5ccnc5)cc4-c4cn(C)nc4C(F)(F)F)C3=O)ccnc2c(OC)n1 + Nc1ccc(C#CCN(C(=O)Cc2ncc(C(F)(F)F)cc2C(F)(F)F)c2ccc(F)cc2)nn1
IC50 (second compound 0.0316 µM): > 10 µM | IC50 (second compound 0.1 µM): > 10 µM | IC50 (second compound 0.316 µM): > 10 µM | IC50 (second compound 1 µM): > 10 µM | IC50 (second compound 3.16 µM): > 10 µM | IC50 (second compound 10 µM): > 10 µM | viability, T/C [1]: 94.6% | viability, T/C [2]: 95.7% | viability, T/C [3]: 91.6% | viability, T/C [4]: 85.6% | viability, T/C [5]: 96.3% | viability, T/C [6]: 111% | viability, T/C [7]: 90.2% | viability, T/C [8]: 92.2% | viability, T/C [9]: 100% | viability, T/C [10]: 97.8% | viability, T/C [11]: 119% | viability, T/C [12]: 95.5% | viability, T/C [13]: 88.8% | viability, T/C [14]: 111% | viability, T/C [15]: 90.9% | viability, T/C [16]: 108% | viability, T/C [17]: 104% | viability, T/C [18]: 114% | viability, T/C [19]: 103% | viability, T/C [20]: 102% | viability, T/C [21]: 93.1% | viability, T/C [22]: 94.6% | viability, T/C [23]: 110% | viability, T/C [24]: 105% | viability, T/C [25]: 109% | viability, T/C [26]: 98.7% | viability, T/C [27]: 112% | viability, T/C [28]: 100% | viability, T/C [29]: 106% | viability, T/C [30]: 94.2% | viability, T/C [31]: 117% | viability, T/C [32]: 99% | viability, T/C [33]: 100% | viability, T/C [34]: 117% | viability, T/C [35]: 121% | viability, T/C [36]: 90.9%

COc1cc2cc(C(=O)CCC(=O)O)sc2cc1OC + Nc1ccc(C#CCN(C(=O)Cc2ncc(C(F)(F)F)cc2C(F)(F)F)c2ccc(F)cc2)nn1
IC50 (second compound 0.0316 µM): > 10 µM | IC50 (second compound 0.1 µM): > 10 µM | IC50 (second compound 0.316 µM): > 10 µM | IC50 (second compound 1 µM): > 10 µM | IC50 (second compound 3.16 µM): > 10 µM | IC50 (second compound 10 µM): > 10 µM | viability, T/C [1]: 83.5% | viability, T/C [2]: 87.3% | viability, T/C [3]: 92.9% | viability, T/C [4]: 88.7% | viability, T/C [5]: 93.4% | viability, T/C [6]: 85.6% | viability, T/C [7]: 96.3% | viability, T/C [8]: 98.5% | viability, T/C [9]: 91% | viability, T/C [10]: 100% | viability, T/C [11]: 90.3% | viability, T/C [12]: 103% | viability, T/C [13]: 97.5% | viability, T/C [14]: 87.5% | viability, T/C [15]: 87% | viability, T/C [16]: 91.9% | viability, T/C [17]: 89.9% | viability, T/C [18]: 97.8% | viability, T/C [19]: 96.1% | viability, T/C [20]: 96.5% | viability, T/C [21]: 92.2% | viability, T/C [22]: 94.3% | viability, T/C [23]: 94.8% | viability, T/C [24]: 83.2% | viability, T/C [25]: 78.8% | viability, T/C [26]: 105% | viability, T/C [27]: 90% | viability, T/C [28]: 90.7% | viability, T/C [29]: 98.9% | viability, T/C [30]: 93.5% | viability, T/C [31]: 106% | viability, T/C [32]: 94.8% | viability, T/C [33]: 81.5% | viability, T/C [34]: 90% | viability, T/C [35]: 90.5% | viability, T/C [36]: 96.5%
